In publication PMC10982999, “Structure-Guided Design and Optimization of Covalent VHL-Targeted Sulfonyl Fluoride PROTACs” (Journal of Medicinal Chemistry, 2024):
Where two headings read alike, the source gives them in different places.

Key:
[1] = target: T1, BRD4 (HEK293 HiBiT-BRD4 Cln3 cells) (Homo sapiens, UniProt O60885); format: cell-based; conditions: 5 h treatment, PBS washing, 24 h recovery with excess VH032 (50 μM) vs standard treatment 29 h; from AUC of residual BRD4 long isoform
T1 construct: GSK; host or cells: HEK293 HiBiT-BRD4 Cln3
Experimental: To further investigate the potential advantage of a covalent VHL ligand, we performed a head-to-head comparison of BRD-SF2 and MZ-1 in a washout experiment.
BRD4 and loading control Tubulin levels were visualized by Western blotting. […] BRD4 and loading control Tubulin levels were visualized by Western blotting.
with BRD-SF2 and MZ1, followed by 3 cycles of PBS wash, where media was aspirated, and
PBS used to gently wash the cells before allowing 24 h recovery incubation in DMEM media
The control plate was run as
described above, but no washout was applied making the total incubation time 29 h (5 h + 24
h). The assay was performed and analysed as described above.

[2] = target: T2, endogenous BRD4 in HEK293 cells (Homo sapiens, UniProt O60885); experiment: Endogenous BRD4 degradation, Western blot; format: cell-based; conditions: 18 h, read-out: BRD4 long isoform Dmax
T2 construct: endogenous in cells; host or cells: HEK293

[3] = tested on: BRD4-HiBiT HEK293T cells; conditions: 18 h, 70-0.01 μM
[4] = target: T1, BRD4 (HEK293 HiBiT-BRD4 Cln3 cells); experiment: BRD4 HiBiT degradation assay; format: cell-based
Experimental: Figure 3 (A) Structure of BRD-SF2. […] BRD4 and loading control GAPDH levels were visualized by Western blotting. […] (D) HEK293 HiBiT-BRD4 Cln3 cells were treated with epoxomicin (1 μM) for 3 h, followed by the respective PROTAC or VHL-SF2 dose-dependently (75–0.01 μM) for 18 h. […] (E) HEK293 HiBiT-BRD4 Cln3 cells were treated with MLN4924 (1 μM) for 3 h, followed by the respective PROTAC or VHL-SF2 dose-dependently (75–0.01 μM) for 18 h. […] (F) Structure of AR-VHL-SF2 and AR2-VHL-SF2. […] The data the show mean ± SEM (n = 3).
Cellular BRD4/AR HiBiT assay
The HiBiT tagged cells were seeded at 10,000 cells per well in a 384-well plate (Thermo Scientific, 164610) at 25 µL per well in DMEM media containing 10% FBS and incubated overnight. Compounds were dispensed using D300e Digital Dispenser (HP) and normalized to 0.1% DMSO. Cells were pre-treated with Epoxomicin or MLN4924 for 3 h before treatment or directly with the PROTAC degraders for 18 or 24 h. Nano -Glo HiBiT lytic detection assay was performed as described in the manufacturer protocol (Promega). 25 µL of premixed detection reagent was added to each well of the 384 well assay plate and incubated for 15 min on an orbital shaker (at 600 RPM), and luminescence was read using a PHERAstar FS plate reader (BMG Labtech). Corresponding background RLU values were subtracted from DMSO control values and the percentage of protein (%) of were then calculated against […]
DMSO-treated controls. […]

[5] = target: T3, VCB protein (Homo sapiens, UniProt P40337); experiment: Gel-based labelling of VHL (Neutravidin HRP blot); format: binding; conditions: 2 h at room temperature, 1-100 µM probe
T3 construct: human VHL (UniPort entry P40337, residues 1 -213); 6xHis followed by TEV site (N, cleaved yes); made in house; host or cells: E. coli One Shot BL21(DE3)
Experimental: (§1) To assess the ability of VHL-SF1 to covalently modify VHL, we initially developed a streptavidin shift assay in which we exposed recombinant human VCB, a stable complex of VHL protein with elongin C and elongin B, to VHL-SF1-Biotin. VHL biotinylation could then be directly quantified by the apparent shift in molecular weight observed when the sample was mixed with streptavidin and analyzed by an anti-VHL Western blot (Figure S2).[20] Through this assay, we concluded that 10 μM VHL-SF1-Biotin modified 32% VHL following 2 h of incubation at room temperature, which was further confirmed to be concentration-dependent with respect to the probe (Figure S3).
Figure S3. (A) Gel-based VHL labelling of VHL-SF1-Biotin, and (B) VHL-SF2-Biotin. […]
Figure S4. Dose-response of VHL-SF1 following a 2 h pre-incubation in the presence of VCB and FAM-conjugated HIF1α-derived peptide, assessed by fluorescence polarization. […]
VCB (11.1 mg/ mL) was diluted with PBS pH 7.4 (2 µg/ mL). […] 10 µL of each sample was loaded onto the gel and the bands were quantified […]
HEK293T cells were plated into two 6 well plates (in 1 mL media 10% FBS low glucose media) at a cell density of 1.0 x 10^6 cells/well 24 h before treatment. […] Proteins were separated by SDS -PAGE and further analyzed by immunoblotting. […]

[6] = target: T4, recombinant human VCB (VHL protein with elongin C and elongin B) (Homo sapiens, UniProt P40337); experiment: Gel-based streptavidin shift assay (anti-VHL Western blot); format: binding; conditions: 10 μM probe, 2 h incubation at room temperature
T4 construct: human VHL (UniPort entry P40337, residues 1 -213); 6xHis followed by TEV site (N, cleaved yes); made in house; host or cells: E. coli One Shot BL21(DE3)
Experimental: as §1
Figure S2. (A) Structure of VHL-SF-1-Biotin. (B) Structure of VHL-SF-2-Biotin. (C - E) Gel-based streptavidin shift assay of VHL-SF1-Biotin, and VHL-SF2-Biotin. VCB protein was pre-treated with DMSO, VHL-SF1-Biotin (10 μM) or VHL-SF2-Biotin (10 μM) for 2 h at room temperature prior to addition of streptavidin (10 μM, 10 min) at room temperature, after which protein was resolved on SDS-PAGE and visualised by VHL western blotting. (F) Quantification of VHL levels from western blot.
Docking analysis with Molecular Operating Environment (MOE)
Molecular modelling studies were conducted using the software Molecular Operating Environment 2019.01. […]

| Compound | relative decrease in degradation activity after washout [1] | Dmax [2] | cytotoxicity (CellTiter-Glo) [3] | Dmax ([4]; HEK293, read-out: Dmax (BRD4 degradation)) | BRD4 depletion in presence of NEDDylation inhibitor MLN4924 ([4]; MLN4924 1 μM 3 h pretreatment, then compound 18 h) | BRD4 depletion in presence of proteasome inhibitor epoxomicin ([4]; epoxomicin 1 μM 3 h pretreatment, then compound 18 h) | DC50 ([4]; read-out: BRD4 DC50) | DC50 ([4]; read-out: DC50 (BRD4 degradation), 18 h incubation) | VHL labelling with respect to probe concentration [5] | VHL modified (VHL biotinylation, streptavidin shift) [6] |
| --- | --- | --- | --- | --- | --- | --- | --- | --- | --- | --- |
| COCC(COC)n1c(-c2cc(C)c(=O)n(C)c2)nc2cc(C3CCN(C(=O)COCCOCCOCCNC(=O)C[C@H](NC(=O)[C@@H]4C[C@@H](S(=O)(=O)F)CN4C(=O)[C@@H](c4cc(C)no4)C(C)C)c4ccc(-c5scnc5C)cc4)CC3)ccc21 [BRD-SF2, (3R,5S)-5-(((S)-1-(4-(1-(1,3-Dimethoxypropan-2-yl)-2-(1,5-dimethyl-6-oxo-1,6-dihydropyridin-3-yl)-1H-benzo[d]imidazole-5-yl)piperidin-1-yl)-15-(4-(4-methylthiazol-5-yl)phenyl)-1,13-dioxo-3,6,9-trioxa-12-azapentadecan-15-yl)carbamoyl)-1-((R)-3-methyl-2-(3-methylisoxazol-5-yl)butanoyl)pyrrolidine-3-sulfonyl fluoride] | 27% | 50% | no evidence of cytotoxicity | 60% | not depleted | not depleted | 17 µM | 17.2 µM |  |  |
| (3R,5S)-1-((S)-2-(tert-Butyl)-4,16-dioxo-20-((3aS,4R,6aR)-2-oxohexahydro-1H-thieno[3,4-d]imidazole-4-yl)-6,9,12-trioxa-3,15-diazaicosanoyl)-5-((4-(4-methylthiazol-5-yl)benzyl)carbamoyl-)pyrrolidine-3-sulfonyl fluoride [VHL-SF1-Biotin] |  |  |  |  |  |  |  |  | concentration-dependent | 32% |
